Reference: ChEMBL document CHEMBL6078707, “Preferential Synaptic Type of GABA-A Receptor Ligands Enhancing Neuronal Survival and Facilitating Functional Recovery After Ischemic Stroke” (J Med Chem, 2024)

What was measured:
[1] = Permeability of compound in PBS buffer at pH7.4 at 100 uM incubated for 5 hrs by UPLC-MS based PAMPA assay; assay type: ADME; settings: pH 7.4, read-out: permeability
[2] = Thermodynamic solubility of compound in phosphate buffer at pH 7.4 at 2 mg measured after 24 hrs by HPLC analysis; assay type: physicochemical; settings: read-out: Therm_solubility
[3] = Half-life in male Sprague-Dawley rat at 5 mg/kg, ip by HPLC analysis; assay type: ADME, organism-based; settings: in vivo
[4] = Half-life in human plasma; assay type: ADME, cell-free
[5] = Terminal half-life in male Sprague-Dawley rat plasma at 3 mg/kg, ip measured after 480 mins by LC-ESI/MS-MS analysis; assay type: ADME, organism-based; settings: read-out: beta t1/2
[6] = MRT in male Sprague-Dawley rat brain at 3 mg/kg, iv measured after 480 mins by LC-ESI/MS-MS analysis; assay type: ADME, organism-based
[7] = Metabolic stability in human liver microsomes assessed as intrinsic clearance; assay type: ADME, Microsome; settings: read-out: CLH
[8] = Cmax in male Sprague-Dawley rat brain at 3 mg/kg, iv measured after 480 mins by LC-ESI/MS-MS analysis; assay type: ADME, organism-based
[9] = MRT in male Sprague-Dawley rat plasma at 3 mg/kg, iv measured after 480 mins by LC-ESI/MS-MS analysis; assay type: ADME, organism-based
[10] = Tmax in male Sprague-Dawley rat brain at 3 mg/kg, ip measured after 480 mins by LC-ESI/MS-MS analysis; assay type: ADME, organism-based
[11] = MRT in male Sprague-Dawley rat plasma at 3 mg/kg, ip measured after 480 mins by LC-ESI/MS-MS analysis; assay type: ADME, organism-based
[12] = MRT in male Sprague-Dawley rat at 5 mg/kg, ip measured after 480 mins by LC-ESI/MS-MS analysis; assay type: ADME, organism-based; settings: in vivo
[13] = Permeability across basolateral to apical side in MDCKII-MDR1 cells at pH 7.4; assay type: ADME, cell-based, Canis lupus familiaris; settings: dog, MDCK-MDR1, pH 7.4
[14] = AUC (0 to t) in male Sprague-Dawley rat plasma at 3 mg/kg, ip measured after 480 mins by LC-ESI/MS-MS analysis; assay type: ADME, organism-based
[15] = Tmax in male Sprague-Dawley rat brain at 3 mg/kg, iv measured after 480 mins by LC-ESI/MS-MS analysis; assay type: ADME, organism-based
[16] = AUC (0 to t) in male Sprague-Dawley rat plasma at 3 mg/kg, iv measured after 480 mins by LC-ESI/MS-MS analysis; assay type: ADME, organism-based; settings: in vivo, 8 h
[17] = Cmax in male Sprague-Dawley rat brain at 3 mg/kg, ip measured after 480 mins by LC-ESI/MS-MS analysis; assay type: ADME, organism-based
[18] = Clearance in male Sprague-Dawley rat plasma at 3 mg/kg, iv measured after 480 mins by LC-ESI/MS-MS analysis; assay type: ADME, organism-based
[19] = MRT in male Sprague-Dawley rat brain at 3 mg/kg, ip measured after 480 mins by LC-ESI/MS-MS analysis; assay type: ADME, organism-based
[20] = Terminal half-life in male Sprague-Dawley rat brain at 3 mg/kg, ip measured after 480 mins by LC-ESI/MS-MS analysis; assay type: ADME, organism-based; settings: read-out: beta t1/2
[21] = Terminal half-life in male Sprague-Dawley rat plasma at 3 mg/kg, iv measured after 480 mins by LC-ESI/MS-MS analysis; assay type: ADME, organism-based; settings: read-out: beta t1/2
[22] = Cmax in male Sprague-Dawley rat at 5 mg/kg, ip measured after 480 mins by LC-ESI/MS-MS analysis; assay type: ADME, organism-based; settings: in vivo
[23] = Tmax in male Sprague-Dawley rat plasma at 3 mg/kg, ip measured after 480 mins by LC-ESI/MS-MS analysis; assay type: ADME, organism-based
[24] = Metabolic stability in human liver microsomes assessed as half-life; assay type: ADME, Microsome
[25] = Terminal half-life in male Sprague-Dawley rat at 5 mg/kg, ip measured after 480 mins by LC-ESI/MS-MS analysis; assay type: ADME, organism-based; settings: in vivo, read-out: beta t1/2
[26] = AUC (0 to t) in male Sprague-Dawley rat brain at 3 mg/kg, ip measured after 480 mins by LC-ESI/MS-MS analysis; assay type: ADME, organism-based; settings: in vivo, 8 h
[27] = AUC (0 to t) in male Sprague-Dawley rat brain at 3 mg/kg, iv measured after 480 mins by LC-ESI/MS-MS analysis; assay type: ADME, organism-based; settings: in vivo, 8 h
[28] = Drug metabolism in human liver microsomes assessed as hydroxylation mediated metabolite formation by LCMS analysis; assay type: ADME, Microsome
[29] = Drug distribution in MCAO-reperfusion induced male Sprague-Dawley rat brain at 1.5 mg/kg, ip administered once daily for 3 days starting from 1.5 hrs post reperfusion by DESI mass spectrometric imaging analysis; assay type: ADME, organism-based; settings: in vivo, 72 h, time 3 day
[30] = Unbound drug concentration in male Sprague-Dawley rat brain at 3 mg/kg, ip measured after 480 mins by LC-ESI/MS-MS analysis; assay type: ADME, organism-based; settings: in vivo, 8 h
[31] = Cmax in male Sprague-Dawley rat plasma at 3 mg/kg, ip measured after 480 mins by LC-ESI/MS-MS analysis; assay type: ADME, organism-based
[32] = AUC (0 to t) in male Sprague-Dawley rat at 5 mg/kg, ip measured after 480 mins by LC-ESI/MS-MS analysis; assay type: ADME, organism-based; settings: in vivo
[33] = Volume of distribution in male Sprague-Dawley rat at 5 mg/kg, ip measured after 480 mins by LC-ESI/MS-MS analysis; assay type: ADME, organism-based; settings: in vivo, 8 h
[34] = Volume of distribution in male Sprague-Dawley rat plasma at 3 mg/kg, iv measured after 480 mins by LC-ESI/MS-MS analysis; assay type: ADME, organism-based
[35] = Terminal half-life in male Sprague-Dawley rat brain at 3 mg/kg, iv measured after 480 mins by LC-ESI/MS-MS analysis; assay type: ADME, organism-based; settings: read-out: beta t1/2
[36] = Permeability across apical to basolateral side in MDCKII-MDR1 cells at pH 7.4; assay type: ADME, cell-based, Canis lupus familiaris; settings: dog, MDCK-MDR1, pH 7.4; read-out: permeability
[37] = Clearance in male Sprague-Dawley rat at 5 mg/kg, ip measured after 480 mins by LC-ESI/MS-MS analysis; assay type: ADME, organism-based; settings: in vivo
[38] = Unbound drug concentration in male Sprague-Dawley rat plasma at 3 mg/kg, ip measured after 480 mins by LC-ESI/MS-MS analysis; assay type: ADME, organism-based; settings: in vivo, 8 h

Compound: Cc1ccc2nc(-c3ccc(F)cc3)c(CC(=O)N3CCSCC3)n2n1.O=C(O)C(O)C(O)C(=O)O
- Papp at 5 h, 100 µM [1]: 11.7 ×10⁻⁶ cm/s
- solubility thermodynamic at 24 h [2]: 320 µg/mL

Compound: Cc1ccc2nc(-c3ccc(F)cc3)c(CC(=O)Nc3ccccc3F)n2c1.O=C(O)C(O)C(O)C(=O)O
- Papp at 5 h, 100 µM [1]: 6.25 ×10⁻⁶ cm/s

Compound: Cc1ccc2nc(-c3ccc(F)cc3)c(CC(=O)N(C)C)n2n1.O=C(O)C(O)C(O)C(=O)O
- Papp at 5 h, 100 µM [1]: 9.79 ×10⁻⁶ cm/s
- solubility thermodynamic at 24 h [2]: > 2000 µg/mL

Compound: Cc1ccc(-c2nc3ccc(C)cn3c2CC(=O)N(C)C)cc1 [ZOLPIDEM]
- solubility thermodynamic at 24 h [2]: > 2000 µg/mL
- half-life [3]: 30.6 min
- half-life [4]: 120 min

Compound: CCN1CCCC1CNC(=O)c1cc(S(N)(=O)=O)ccc1OC (stereo not given) [SULPIRIDE]
- Papp at 5 h, 100 µM [1]: 0.016 ×10⁻⁶ cm/s

Compound: Cc1ccc2nc(-c3ccc(F)cc3)c(CC(=O)N3CCCC3)n2n1.O=C(O)C(O)C(O)C(=O)O
- Papp at 5 h, 100 µM [1]: 22.9 ×10⁻⁶ cm/s

Compound: Cc1ccc2nc(-c3ccc(F)cc3)c(CC(=O)Nc3ccccc3)n2c1.O=C(O)C(O)C(O)C(=O)O
- Papp at 5 h, 100 µM [1]: 5.29 ×10⁻⁶ cm/s

Compound: COc1ccc(NC(=O)Cc2c(-c3ccc(F)cc3)nc3ccc(C)nn23)cc1.O=C(O)C(O)C(O)C(=O)O
- Papp at 5 h, 100 µM [1]: 433 ×10⁻⁶ cm/s
- solubility thermodynamic at 24 h [2]: 130 µg/mL

Compound: Cc1ccc(-c2nc3ccc(C)cn3c2CC(=O)N(C)C)cc1.Cc1ccc(-c2nc3ccc(C)cn3c2CC(=O)N(C)C)cc1.O=C(O)C(O)C(O)C(=O)O [ZOLPIDEM TARTRATE]
- Papp at 5 h, 100 µM [1]: 21.6 ×10⁻⁶ cm/s

Compound: Cc1ccc2nc(-c3ccc(F)cc3)c(CC(=O)N3CCOCC3)n2n1.O=C(O)C(O)C(O)C(=O)O
- Papp at 5 h, 100 µM [1]: 9.99 ×10⁻⁶ cm/s
- solubility thermodynamic at 24 h [2]: 1590 µg/mL

Compound: Cc1ccc2nc(-c3ccc(F)cc3)c(CC(=O)N3CCCC3)n2c1.O=C(O)C(O)C(O)C(=O)O
- half-life [5]: 270 min
- Papp at 5 h, 100 µM [1]: 29.7 ×10⁻⁶ cm/s
- MRT [6]: 65.5 min
- microsomal CLint [7]: 9.8 µL/min/mg
- Cmax [8]: 445 ng/g
- MRT [9]: 39.7 min
- Tmax [10]: 5 min
- MRT [11]: 50.9 min
- MRT [12]: 27.6 min
- Papp B→A [13]: 29.7 ×10⁻⁶ cm/s
- AUC(0-t) at 8 h [14]: 2140 ng·h/mL
- Tmax [15]: 5 min
- AUCt [16]: 538253 ng·min/g
- Cmax [17]: 220 ng/g
- clearance [18]: 5.56 mL/min/kg
- MRT [19]: 102 min
- half-life [20]: 653 min
- half-life [21]: 47.8 min
- Cmax [22]: 2340 ng/mL
- Tmax [23]: 5 min
- solubility thermodynamic at 24 h [2]: 1870 µg/mL
- half-life [24]: 176 min
- half-life [25]: 30.6 min
- AUCt [26]: 8229 ng·min/g
- AUCt [27]: 15265 ng·min/g
- Drug metabolism [28]: metabolite_detected
- Drug uptake [29]: Active
- Cp(f) [30]: 348.03 nM
- Cmax [31]: 4500 ng/mL
- AUC(0-t) at 8 h [32]: 39 ng·h/mL
- Vd [33]: 0.104 L/kg
- Vd [34]: 0.383 L/kg
- half-life [35]: 135 min
- Papp A→B [36]: 55.6 ×10⁻⁶ cm/s
- CL/F [37]: 2.35 mL/min
- Drug uptake(free) [38]: 2482.75 nM

Compound: Cc1ccc2nc(-c3ccc(F)cc3)c(CC(=O)Nc3ccc(F)cc3)n2c1.O=C(O)C(O)C(O)C(=O)O
- Papp at 5 h, 100 µM [1]: 6.06 ×10⁻⁶ cm/s

Compound: Cn1c(=O)c2c(ncn2C)n(C)c1=O [CAFFEINE]
- Papp at 5 h, 100 µM [1]: 15.2 ×10⁻⁶ cm/s

Compound: COc1ccc(NC(=O)Cc2c(-c3ccc(F)cc3)nc3ccc(C)cn23)cc1.O=C(O)C(O)C(O)C(=O)O
- Papp at 5 h, 100 µM [1]: 1.03 ×10⁻⁶ cm/s
